B1: RANKL: recombinant RANKL protein, ligand of RANK, used as stimulus (1 μg/ml or 1 μg i.p.) (protein, UniProt O35235 139-316, looked up)
Tumor necrosis factor ligand …: FSGAPAMMEGSWLDVAQRGKPEAQPFAHLTINAASIPSGSHKVTLSSWYHDRGWAKISNMTLSNGKLRVNQDGFYYLYANICFRHHETSGSVPTDYLQLMVYVVKTSIKIPSSHNLMKGGSTKNWSGNSEFHFYSINVGGFFKLRAGEEISIQVSNPSLLDPDQDATYFGAFKVQDID

Tests used:
Type in all cases: in vivo, mouse
RANKL [1] = assay: RANKL mRNA in purified mammary epithelial cells by qRT-PCR after MPA pellet implantation
Procedure: (§1) a,b, Induction of RANKL expression by the progesterone-derivative MPA. Nulliparous wild type females were s.c. implanted with slow-release MPA pellets or treated with surgery sham. a, RANKL mRNA was determined in purified mammary epithelial cells by qRT-PCR three days after implantation. Data are shown as fold change compared to sham treatment (+/−sem) (n=3). b, In situ […] immunostaining of progesterone receptor (PR, red) and RANKL (green) in mammary epithelial cells after 3d MPA treatment. c, Induction of soluble RANKL protein assayed on isolated mammary gland epithelial cells from control, but not in prolactin receptor mutant (PRL-R KO) females on day 3 after s.c. MPA implantation. Mammary glands from sham operated control litter-mates and PRL-R KO females are shown as controls. d, Epithelial proliferation in mammary glands of control littermates and RANK^Δmam females 3 days after sham treatment and MPA implantation. Proliferation was determined by in situ Ki67 immunostaining. e,f, Marked increase of the stem cell-enriched CD24^+CD49^high population (MaSC) in MPA-treated mammary glands in control but not in RANK^Δmam mammary glands. e, Representative FACS profiles showing CD24 and CD49 expression of lineage negative (CD31^− (endothelial cells) CD45^− (hematopoietic cells) […] (erythroid cells)) of mammary MaSCs from MPA- or sham-treated 8-week old virgin females. f, Quantification of MaSC-enriched CD24^+CD49^high population from mammary glands of MPA- or sham-treated virgin RANK^Δmam and littermate control females. For all MaSCs experiments mice were treated with MPA for 3 days. n=4 per group+/−sem. *P<0.05; ***P<0.001 (Student's t-test).
a-d, Induction of RANKL expression by the progesterone-derivative MPA. […] Numbers indicate amino acid residues. c, Expression of total (t) RANKL, RANKL1, RANKL2, and RANKL3 mRNA in purified mammary epithelial cells after three days MPA treatment. β-actin is shown as a control. d, Representative agarose gel of RT-PCR products as in c. e, mRNA expression of various proteases known to shed RANKL from the surface of cells. mRNA was determined in purified mammary epithelial cells by qRT-PCR three days after MPA implantation. […]
a,b, MPA induces RANKL expression in mammary epithelial cells. Nulliparous wild type females were treated with oral gavage of DMBA or oil vehicle, s.c. implanted with slow-release MPA pellets, or treated with sham surgery. a, RANKL mRNA was determined in purified mammary epithelial cells by qRT-PCR 3 days after implantation/oral gavage. […]

RANKL [2] = assay: RANKL protein in mammary gland / isolated mammary epithelial cells (immunostaining, Western blot) after MPA implantation
Procedure: as §1
a-d, Induction of RANKL expression by the progesterone-derivative MPA. Nulliparous wild type females were s.c. implanted with slow-release MPA pellets or treated with surgery sham. a, Expression of transmembrane (tm) and soluble (s) RANKL protein was assayed on isolated mammary gland epithelial cells by Western blot 3 and 6 days after MPA pellet implantation or sham surgery. β-actin is shown as a loading control. Recombinant murine sRANKL and recombinant human tmRANKL protein are shown for molecular size comparison in the right panels. […] Numbers indicate amino acid residues. c, Expression of total (t) RANKL, RANKL1, RANKL2, and RANKL3 mRNA in purified mammary epithelial cells after three days MPA treatment. β-actin is shown as a control. d, Representative agarose gel of RT-PCR products as in c. e, mRNA expression of various proteases known to shed RANKL from the surface of cells. mRNA was determined in purified mammary epithelial cells by qRT-PCR three days after MPA implantation. […]

mammary epithelial cells = assay: Epithelial proliferation in mammary glands by in situ Ki67 immunostaining
Procedure: as §1
At least 1000 mammary gland epithelial cells were counted per mouse. n=3 mice per genotype. **P<0.005; ***P<0.001 (Student's t-test). b, Quantification of in situ Ki67 immunostained cells per acinus from mammary glands of control littermate and RANK^Δmam females on day 3 after MPA s.c. implantation. […] At least 1000 cells were counted per mammary gland. n=3 per genotype. In b, and c, data are shown as percentage of acini/ducts with low (<20% of epithelial cells are Ki67^+), medium (20-80% of epithelial cells are Ki67^+) and high (>80% of epithelial cells are Ki67^+) numbers of proliferating cells+/−sem. ***P<0.001; *P<0.03 (Student's t-test). d, Epithelial proliferation in mammary glands of control littermates and RANK^Δmam females 1 day after i.p. injection of PBS or RANKL (1 μg). Proliferation was determined in situ Ki67 immunostaining. Magnifications×40. e, Quantification of epithelial proliferation 1 day after i.p. injection of PBS or RANKL (1 μg). Mean percentages of Ki67 positive cells+/−sem are shown. *P<0.03; n=5 (Student's t-test).
For histological analysis, 5 μm sections were cut and stained with hematoxylin and eosin (H&E). Whole-mount staining of mammary glands was performed as described^8. For immunoperoxidase staining paraffin-embedded sections were […] and antigenic epitopes exposed using a 10 mM citrate buffer or microwaving. […] Histomorphometric indices (proliferation and apoptosis) were calculated as the number of positive epithelial cells divided by the total number of epithelial cells, with no fewer than 1000 nuclei for Ki67 stainings and no fewer than 5000 cells for active Caspase 3 staining counted per section. […]

Row | Molecule | mRNA of proteases known to shed RANKL (MMP14, ADAM17/TACE) (RANKL [1]; 3 days after MPA implantation, qRT-PCR) | RANKL mRNA and protein expression in purified mammary epithelial cells (RANKL [1]; 3 days after implantation/oral gavage, qRT-PCR and Western blot) | mRNA expression of RANK, OPG, PTHrP and TRAIL in isolated mammary epithelial cells (RANKL [1]; MPA pellets implanted) | induction of RANKL mRNA in isolated mammary epithelial cells (RANKL [1]; s.c. slow-release MPA pellets, 3 days, vs sham, wild type females) | 19 kDa soluble form of RANKL, Western blotting of isolated mammary epithelial cells (RANKL [2]; 3 and 6 days after MPA pellet implantation) | RANKL protein in the mammary gland, immunohistochemistry (RANKL [2]; 3 d MPA treatment) | RANKL protein production (RANKL [2]; female control mice, day 3 after s.c. MPA implantation) | RANKL protein induction (RANKL [2]; prolactin receptor mutants (PRL-R KO), day 3 after s.c. MPA implantation) | MPA-induced proliferation of mammary epithelial cells (mammary epithelial cells; RANKΔmam females, 3 days after MPA implantation) | acini with very low proliferation rates (Ki67) (mammary epithelial cells; RANKΔmam females, day 3 after MPA s.c. implantation) | acini with medium to high proliferation (Ki67) (mammary epithelial cells; control females, day 3 after MPA s.c. implantation) [%] | proliferation of mammary epithelial cells (mammary epithelial cells; wild type, 3 days after MPA implantation) | proliferation of mammary gland epithelial cells (mammary epithelial cells; nulliparous females, 1 day after i.p. injection of RANKL (1 μg))
1 | CC(=O)O[C@]1(C(C)=O)CC[C@H]2[C@@H]3C[C@H](C)C4=CC(=O)CC[C@]4(C)[C@H]3CC[C@@]21C [MPA, medroxyprogesterone acetate] | induction of MMP14 and ADAM17/TACE | induced RANKL mRNA and protein expression | not changed | more than 2000 fold | induction of the 19 kDa soluble form of RANKL | induction of RANKL protein in the mammary gland | triggers substantial production of RANKL protein | failed to detect RANKL induction | significantly reduced | more than 60% | ~80 | triggers massive proliferation | 
2 | B1 |  |  |  |  |  |  |  |  |  |  |  |  | triggered proliferation of mammary gland epithelial cells via RANK

Reference: patent US10143747B2, “Breast cancer therapeutics” (IMBA—INSTITUT FÜR MOLEKULARE BIOTECHNOLOGIE GMBH, priority 2010, dated 2018)
